Source: patent publication US10413559B2, “Method for treating demyelinating disease” (OCHANOMIZU UNIVERSITY, priority 2013, dated 2019)

Key:
[1] = test system: demyelination model mice (0.2% cuprizone); assay: Test of motor function impairment using rotarod; assay type: in vivo, C57BL/6j mice; conditions: intraperitoneal 1.6 mg/kg/day for 5 weeks, 28 rpm, 300 seconds, FIG. 9, FIG. 10
Description: 10-week-old male C57BL/6j mice (Tokyo Laboratory Animals Science Co., Ltd., Tokyo, Japan) were fed by the discretionary intake of a mash feed (CLEA Japan, Inc.) that contained 0.2% cuprizone (biscyclohexanone oxalyl hydrazone; Merck KGaA, Darmstadt, Germany) for 5 weeks until demyelination progressed most, so as to produce demyelination model mice involving demyelination caused by oligodendrocyte-specific cell death. The cPA used in the experiment was the same cPA (16:0) as that used in Example 1, and the carba-cPA was 2 ccPA (16:1). The cPA and 2 ccPA were chemically purified (Biochimica et Biophysica Acta, Emi Nozaki 2011), and were then dissolved in a 0.9% saline. […] The locomotion time on the rod was evaluated by measuring the time required for the mice to fall from the rotating rod within a record time of 300 seconds. Moreover, even after the mice had fallen from the rod, they were forced to continue their activity immediately after the falling, so that a total number of the activities from falling from the rod to holding on to the rod for 300 seconds (a number of falls and flips) was measured and evaluated. The data of the test of motor function impairment were analyzed according to a non-parametric method using a Kruskal-Wallis test. All of other data were analyzed according to a one-way ANOVA method using a Newman-Keulis test. […]

[2] = test system: GFAP, Iba1, PDGFRa, P2rx7, Nlrp3 gene expression in corpus callosum; assay: Genetic analysis using Q-PCR of corpus callosum tissues; assay type: in vivo, C57BL/6j mice; conditions: cuprizone mice; intraperitoneal 1.6 mg/kg/day for 5 weeks; FIG. 6-8
Description: 10-week-old male C57BL/6j mice (Tokyo Laboratory Animals Science Co., Ltd., Tokyo, Japan) were fed by the discretionary intake of a mash feed (CLEA Japan, Inc.) that contained 0.2% cuprizone (biscyclohexanone oxalyl hydrazone; Merck KGaA, Darmstadt, Germany) for 5 weeks until demyelination progressed most, so as to produce demyelination model mice involving demyelination caused by oligodendrocyte-specific cell death.
To obtain mouse corpus callosum tissues to be used for genetic analysis, mouse brain was removed, and the corpus callosum tissues were then collected from the brain. […]
mRNA was extracted from the frozen corpus callosum tissues using ISOGEN (Nippon Gene Co., Ltd., Tokyo, Japan), was then dissolved in RNase free molecular grade water (Takara Bio Inc., Shiga, Japan), and was then preserved at −80° C. […] Gene expression was detected using 7900 Sequence Detection System (Applied Biosystems). […] The gene expression level was calculated by a ΔΔCT method. Data were analyzed by a relative quantification method. A relative change in the gene expression was analyzed, while setting the gene expression level in a control mouse at 100%.

Compound: CCCCCCCCCCCCCCCC(=O)OCC1COP(=O)(O)O1 (centres unmarked) [cPA]
- motor function impairment (rotarod) [1]: motor function impairment is improved
- nerve inflammation (gene expression by Q-PCR) [2]: nerve inflammation is suppressed
